Measurements taken from publication PMC13252604, “First Generation Proteolysis Targeting Chimeras (PROTACs) for the Treatment of Progeria” (Advanced Science, 2026).
pKd: −log10 of the molar value.

Tests used:
[1] = test system: HGADFN167 Lmna^G608G/G608G fibroblasts; experiment: Senescence-associated β-galactosidase activity in human progeroid cells; type: cell-based; conditions: HGADFN167, 5 µM, 20 days
Description: FIGURE 6 (A) Representative cropped immunoblots and progerin quantification in human Lmna^G608G/G608G fibroblasts. MW, molecular weight (in kDa) markers. […] (B) PROTAC 2 increases cell proliferation (upper panels) and decreases the number of misshapen nuclei (lower panels). White arrows highlight selected misshapen nuclei. (C) PROTAC 2 decreases senescence‐associated β‐galactosidase (SA‐βgal) activity, interleukin (IL) 6, p16 and p21 senescent markers. Bar graphs show mean±sem of 2 (SA‐βgal and p21) or 3 (IL‐6 and p16) independent experiments performed in triplicate. (D) PROTAC 2 decreases phosphorylated histone 2AX (pH2AX) and increases trimethylated histone 3 (H3K9Me3) levels. (E) PROTAC 2 increases the oxygen consumption rate (OCR), ATP production and the number of healthy mitochondria in human progeroid cells. […] Data were analysed using one‐way ANOVA followed by Dunnett's post–hoc test vs vehicle (panel A) or vs G608G cells (panels B‐E). ^*, p < 0.05; ^**, p < 0.01; ^***, p < 0.001; ^****, p < 0.0001. […]
compound exposure. […] Samples were analysed by electrophoresis in polyacrylamide gels (All Kd SDS-PAGE, BioRad) and the proteins transferred to nitrocellulose membranes (GE Healthcare, Amersham). […]
GAPDH (Cell Signaling, 2118S, 1:5000) and anti-actin (Santa Cruz Biotechnology, sc-376248, 1:500) as antibodies for loading control. […] The bands were quantified by densitometry using the […]

human serum albumin = human serum albumin (Homo sapiens, UniProt P02768); experiment: Human serum albumin binding
Description: TABLE 1 Pharmacokinetic parameters of PROTAC 2. | column: HSA binding ^c

[2] = test system: Lmna^G609G/G609G fibroblasts; experiment: Immunocytofluorescence (Ki‐67, lamin A/C) in mouse progeroid cells; type: cell-based; conditions: 5 µM
Experimental: Confocal fluorescence microscopy images are representative of 2 independent experiments. […] Representative cropped immunoblots are shown. […] MW, molecular weight (in kDa) markers. (C) PROTAC 2 decreases senescence‐associated β‐galactosidase (SA‐βgal) activity, interleukin (IL) 1α and p16 senescent markers. Lmna^G609G/G609G (G609G) or Lmna^+/+ (WT) fibroblasts were incubated with vehicle or compound 2 (5 µM). […] Data were analysed using one‐way ANOVA followed by Dunnett's post–hoc test. ^*, p < 0.05; ^**, p < 0.01, ^***, p < 0.001, ^****, p < 0.0001 vs G609G cells. […]
compound exposure. […]
TBS-T and proteins were visualized by quimioluminiscence (GE Healthcare […]
For immunocytofluorescence studies, mouse or human progeroid cells previously incubated with compound of interest or DMSO were seeded at a density of […] or 1.5 x 10^4 cells/well over 12 mm diameter slide covers respectively in a 12-well plate and were incubated for 24 h at 37 ᵒC with compound of interest. Cells were fixed with 4% formaldehyde (Ki67, pH2AX) or cold methanol (Lamin A/C, H3K9Me3) from Sigma-Aldrich during 20 min and permeabilized with PBS containing 0.2% Triton X-100 (PBS-T, Sigma-Aldrich). Then, cells were blocked with TBS 2% BSA during 30 min at rt, followed by incubation o.n. with anti-lamin A/C (Santa Cruz Biotechnology, SC-376248, […]
at 4 °C. After that, cells were washed with TBS (1x) and incubated in absence of light for 1 h with fluorescent goat anti-mouse (1:500, Alexa Fluor 488, Life Technologies) diluted in TBS with 2% BSA. Finally, cells were washed with TBS (2x) and the slide cover was carefully mounted with Immumount (Thermo Scientific). The visualization was carried out using confocal microscopy (Olympus IX83) equipped with a 40X oil immersion lens and the appropriate excitation and emission filters at the microscopy UCM facilities. […]
7. Senescence-associated (SA) β-galactosidase activity. […]

human serum albumin, sequence (P02768 25-609): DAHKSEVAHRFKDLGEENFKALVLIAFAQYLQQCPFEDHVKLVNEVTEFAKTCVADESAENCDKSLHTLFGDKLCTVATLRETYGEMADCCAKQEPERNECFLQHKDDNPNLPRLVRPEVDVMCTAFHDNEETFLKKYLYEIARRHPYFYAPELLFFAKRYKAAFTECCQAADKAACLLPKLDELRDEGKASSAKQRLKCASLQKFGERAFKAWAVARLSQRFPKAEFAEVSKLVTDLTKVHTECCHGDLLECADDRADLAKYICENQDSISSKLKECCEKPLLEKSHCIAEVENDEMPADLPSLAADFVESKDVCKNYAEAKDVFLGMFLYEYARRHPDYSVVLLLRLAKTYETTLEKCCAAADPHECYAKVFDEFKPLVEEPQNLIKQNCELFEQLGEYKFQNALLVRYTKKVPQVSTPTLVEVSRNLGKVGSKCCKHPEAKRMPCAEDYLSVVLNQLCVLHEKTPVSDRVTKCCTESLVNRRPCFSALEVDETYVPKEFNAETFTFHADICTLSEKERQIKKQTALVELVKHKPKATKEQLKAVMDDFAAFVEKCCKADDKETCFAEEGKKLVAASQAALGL

Question: What does the source list for `CC1(C)Oc2cc3oc(=O)ccc3cc2C[C@@H]1OC(=O)CCCCCNc1cccc2c1C(=O)N(C1CCC(=O)NC1=O)C2=O` (stereo partly drawn) [compound 2]?
Answer: SA‐βgal senescent marker [1]: significantly reduced; HSA binding (human serum albumin): 99%; pKd (human serum albumin; read-out: HSA binding K D): 5.24; cell proliferation (Ki‐67) [2]: significantly increases cell proliferation; nuclear cell membrane thickness [2]: decreases nuclear cell membrane thickness; progerin accumulation in the nuclear membrane [2]: decreases progerin accumulation in the nuclear membrane
